Laboratory results: article PMC10965793, “Synthesis and biological evaluation of pyridylpiperazine hybrid derivatives as urease inhibitors” (Frontiers in Chemistry, 2024)
Entries after “also recorded” stand apart in the source; their conditions may differ. Read-outs that look alike come from different tables or passages of the source.

Columns and labels:
jack bean urease = jack bean urease (Canavalia ensiformis, UniProt P07374); test: biochemical
Experimental: The inhibitory activity of 1-(3-nitropyridin-2-yl)piperazine derivatives (5a-o; 7a-k) was assessed in vitro against urease with minor modifications using the indophenol method ([Al Azzam et al., 2022]; [Da Costa et al., 2022]). At first, 1 mM solution of a test compound was prepared in 10% DMSO followed by the preparation of the reaction mixture. The reaction mixture was prepared by adding 30 μL of reaction buffer (100 mmol/L of urea, 1 mmol/L of EDTA, 10 mmol/L of LiCl2, 10 mmol/L of KH2PO4; pH: 8.2), 50 μL of R1 (120 mmol/L phosphate buffer, 60 mmol/L sodium salicylate, 5 mmol/L sodium nitroprusside, 1 mmol/L EDTA and 5 KU/L urease), 10 μL of substrate (1 mM urea), and 10 μL of test compound in triplicate in a 96-well plate. After 5 min of incubation at ambient temperature, 70 μL of R2 (120 mmol/L phosphate buffer, 400 mmol/L sodium hydroxide, and 10 mmol/L sodium hypochlorite) was added to the reaction mixture ([Rauf et al., 2013]). After another incubation period of 10 min at room temperature, the absorbance was measured using a microplate reader (Bio-Tek, United States) at a particular wavelength of 630 nm. […] The following equation was used to determine the percentage of inhibition for each test compound. Percentage inhibition=100–Absorbance of test compound/ Absorbance of negative control×100
The IC50 values of test compounds (5a-o; 7a-k) at various concentrations were determined by analyzing the data, obtained from in vitro urease inhibitory assay, by GraphPad Prism version 8.0.2 (GraphPad, California, United States).

human blood cells = test: In vitro hemocompatibility screening (hemolysis); format: cell-based; settings: hemolysis percentage at 0.5 mg/mL and 1 mg/mL nearer to that of PBS
Experimental: 1-(3-nitropyridin-2-yl)piperazine 3 and its derivatives (5b, 5c, 5i; 7e, 7h) were analyzed for hemolysis activity due to their remarkable urease inhibition potential. […] Experimental data on hemolysis percentage have been depicted in Figure 5.
Hemolysis is the rupturing of the cell membrane of red blood cells that causes the expulsion of hemoglobin into the blood plasma. To analyze the effects of 1-(3-nitropyridin-2-yl)piperazine 3 and its derivatives (5b, 5c, 5i; 7e, 7h) on human blood, a hemolysis analysis was carried out (Supplementary Figure S69). About 5 mL fresh sample of human blood was collected from a volunteer and transferred to a vacutainer tube containing EDTA to prevent coagulation. The ultracentrifugation of the blood sample was carried out at 3,000 rpm for 20 min and the separated plasma was discarded. The blood cells were washed about three times by using a double volume of phosphate buffer solution (PBS) (pH = 7.4). […] To quantify hemoglobin in test samples, the absorbance of the supernatant was measured at 540 nm ([Munawwar et al., 2023]). From the absorbance value, the hemolysis percentage was determined by the following formula: Hemolysis %=Absorbance of test sample−Absorbance of negative control/[…]

urease = settings: 2022, cited from earlier work

Chain of jack bean urease (P07374 whole entry, looked up): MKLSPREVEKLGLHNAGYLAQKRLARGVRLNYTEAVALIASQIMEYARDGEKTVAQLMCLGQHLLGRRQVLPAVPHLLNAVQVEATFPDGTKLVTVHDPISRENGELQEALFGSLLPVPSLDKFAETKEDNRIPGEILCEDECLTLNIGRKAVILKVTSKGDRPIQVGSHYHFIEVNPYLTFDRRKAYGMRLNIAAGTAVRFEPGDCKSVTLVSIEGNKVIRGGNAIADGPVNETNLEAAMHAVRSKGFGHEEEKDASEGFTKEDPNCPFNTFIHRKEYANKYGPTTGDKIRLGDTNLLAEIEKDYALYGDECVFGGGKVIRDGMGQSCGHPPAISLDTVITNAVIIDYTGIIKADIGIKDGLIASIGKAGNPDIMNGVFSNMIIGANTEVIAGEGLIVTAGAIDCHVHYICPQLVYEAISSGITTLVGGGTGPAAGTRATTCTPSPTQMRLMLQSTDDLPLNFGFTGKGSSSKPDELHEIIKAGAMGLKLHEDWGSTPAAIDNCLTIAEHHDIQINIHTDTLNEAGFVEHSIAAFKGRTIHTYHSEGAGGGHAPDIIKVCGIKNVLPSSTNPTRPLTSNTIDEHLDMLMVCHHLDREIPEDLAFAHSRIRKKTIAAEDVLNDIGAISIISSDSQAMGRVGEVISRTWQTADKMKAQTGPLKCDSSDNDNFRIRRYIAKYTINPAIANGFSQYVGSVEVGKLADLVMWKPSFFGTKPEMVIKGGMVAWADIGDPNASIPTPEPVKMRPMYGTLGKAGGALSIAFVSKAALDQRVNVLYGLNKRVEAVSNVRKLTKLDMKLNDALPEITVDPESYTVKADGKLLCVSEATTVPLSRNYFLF

| Structure (SMILES) | melting point [°C] | IC50 (jack bean urease) [µM] | biocompatibility in human blood cells (hemolysis percentage) (human blood cells) | IC50 (urease; in Figure 3, ref Naseer et al.) [nM] | IC50 (urease; in Figure 3, ref Moghadam et al.) [nM] |
| --- | --- | --- | --- | --- | --- |
| O=C(CN1CCN(c2ncccc2[N+](=O)[O-])CC1)Nc1ccc([N+](=O)[O-])cc1 [5j, N-(4-Nitrophenyl)-2-(4-(3-nitropyridin-2-yl)piperazin-1-yl)acetamide] | 145 to 146 | 4.19 ± 0.41 |  |  |  |
| COc1ccc(NC(=O)CN2CCN(c3ncccc3[N+](=O)[O-])CC2)cc1 [5o, N-(4-Methoxyphenyl)-2-(4-(3-nitropyridin-2-yl)piperazin-1-yl)acetamide] | 107 to 108 | 5.21 ± 0.47 |  |  |  |
| O=C(CN1CCN(c2ncccc2[N+](=O)[O-])CC1)Nc1ccccc1Br [5e, N-(2-Bromophenyl)-2-(4-(3-nitropyridin-2-yl)piperazin-1-yl)acetamide] | 109 to 110 | 4.47 ± 0.44 |  |  |  |
| O=C(CN1CCN(c2ncccc2[N+](=O)[O-])CC1)Nc1cccc(Cl)c1 [5c, N-(3-Chlorophenyl)-2-(4-(3-nitropyridin-2-yl)piperazin-1-yl)acetamide] | 71 to 73 | 2.13 ± 0.82 |  |  |  |
| CC(C(=O)Nc1cccc(Cl)c1)N1CCN(c2ncccc2[N+](=O)[O-])CC1 (stereo not shown) [7b, N-(3-Chlorophenyl)-2-(4-(3-nitropyridin-2-yl)piperazin-1-yl)propanamide] | 107 to 109 | 6.7 ± 0.37 |  |  |  |
| O=C(CN1CCN(c2ncccc2[N+](=O)[O-])CC1)Nc1ccc(Br)cc1 [5g, N-(4-Bromophenyl)-2-(4-(3-nitropyridin-2-yl)piperazin-1-yl)acetamide] | 115 to 116 | 8.43 ± 0.41 |  |  |  |
| Cc1ccccc1NC(=O)C(C)N1CCN(c2ncccc2[N+](=O)[O-])CC1 (stereo not shown) [7h, N-(ortho-Tolyl)-2-(4-(3-nitropyridin-2-yl)piperazin-1-yl)propanamide] | 90 to 92 | 3.01 ± 0.45 | more biocompatible; also recorded: good biocompatibility |  |  |
| O=C(CN1CCN(c2ncccc2[N+](=O)[O-])CC1)Nc1ccccc1 [5a, 2-(4-(3-Nitropyridin-2-yl)piperazin-1-yl)-N-phenylacetamide] | 79 to 80 | 3.58 ± 0.84 |  |  |  |
| CC(C(=O)Nc1ccc([N+](=O)[O-])cc1)N1CCN(c2ncccc2[N+](=O)[O-])CC1 (stereo not shown) [7g, N-(4-Nitrophenyl)-2-(4-(3-nitropyridin-2-yl)piperazin-1-yl)propanamide] | 159 to 161 | 6.13 ± 0.4 |  |  |  |
| Cc1ccc(NC(=O)CN2CCN(c3ncccc3[N+](=O)[O-])CC2)cc1 [5m, 2-(4-(3-Nitropyridin-2-yl)piperazin-1-yl)-N-(para-tolyl)acetamide] | 112 to 113 | 9.37 ± 0.4 |  |  |  |
| NC(=S)N/N=C/c1ccc(Cl)cn1 [Pyridine carbothioamide] |  |  |  | 1070 |  |
| O=C(CN1CCN(c2ncccc2[N+](=O)[O-])CC1)Nc1ccccc1Cl [5b, N-(2-Chlorophenyl)-2-(4-(3-nitropyridin-2-yl)piperazin-1-yl)acetamide] |  | 2 ± 0.73 |  |  |  |
| O=C(CN1CCN(c2ncccc2[N+](=O)[O-])CC1)Nc1ccc(Cl)cc1 [5d, N-(4-Chlorophenyl)-2-(4-(3-nitropyridin-2-yl)piperazin-1-yl)acetamide] | 99 to 100 | 8.25 ± 0.41 |  |  |  |
| O=C(CN1CCN(c2ncccc2[N+](=O)[O-])CC1)Nc1cccc(Br)c1 [5f, N-(3-Bromophenyl)-2-(4-(3-nitropyridin-2-yl)piperazin-1-yl)acetamide] | 101 to 102 | 5.24 ± 0.45 |  |  |  |
| Cc1cccc(NC(=O)CN2CCN(c3ncccc3[N+](=O)[O-])CC2)c1 [5l, 2-(4-(3-Nitropyridin-2-yl)piperazin-1-yl)-N-(meta-tolyl)acetamide] | 95 to 96 | 7.14 ± 0.46 |  |  |  |
| CC(C(=O)Nc1ccccc1)N1CCN(c2ncccc2[N+](=O)[O-])CC1 (stereo not shown) [7a, 2-(4-(3-Nitropyridin-2-yl)piperazin-1-yl)-N-phenylpropanamide] | 92 to 94 | 7.41 ± 0.44 |  |  |  |
| Cc1ccccc1NC(=O)CN1CCN(c2ncccc2[N+](=O)[O-])CC1 [5k, 2-(4-(3-Nitropyridin-2-yl)piperazin-1-yl)-N-(ortho-tolyl)acetamide] | 105 to 106 | 14.1 ± 0.67 |  |  |  |
| O=C(CN1CCN(c2ncccc2[N+](=O)[O-])CC1)Nc1cccc([N+](=O)[O-])c1 [5i, N-(3-Nitrophenyl)-2-(4-(3-nitropyridin-2-yl)piperazin-1-yl)acetamide] | 139 to 141 | 2.56 ± 0.55 |  |  |  |
| COc1ccccc1NC(=O)C(C)N1CCN(c2ncccc2[N+](=O)[O-])CC1 (stereo not shown) [7j, N-(2-Methoxyphenyl)-2-(4-(3-nitropyridin-2-yl)piperazin-1-yl)propanamide] | 108 to 110 | 5.32 ± 0.41 |  |  |  |
| COc1ccc(NC(=O)C(C)N2CCN(c3ncccc3[N+](=O)[O-])CC2)cc1 (stereo not shown) [7k, N-(4-Methoxyphenyl)-2-(4-(3-nitropyridin-2-yl)piperazin-1-yl)propanamide] | 62 to 64 | 5.95 ± 0.43 |  |  |  |
| CC(C(=O)Nc1ccccc1Br)N1CCN(c2ncccc2[N+](=O)[O-])CC1 (stereo not shown) [7d, N-(2-Bromophenyl)-2-(4-(3-nitropyridin-2-yl)piperazin-1-yl)propanamide] | 91 to 94 | 6.74 ± 0.49 |  |  |  |
| CC(C(=O)Nc1ccc(Cl)cc1)N1CCN(c2ncccc2[N+](=O)[O-])CC1 (stereo not shown) [7c, N-(4-Chlorophenyl)-2-(4-(3-nitropyridin-2-yl)piperazin-1-yl)propanamide] | 57 to 59 | 7.38 ± 0.37 |  |  |  |
| O=[N+]([O-])c1cccnc1N1CCNCC1 [compound 3, 1-(3-Nitropyridin-2-yl)piperazine] |  | 3.9 ± 1.91 |  |  |  |
| CC(C(=O)Nc1ccccc1[N+](=O)[O-])N1CCN(c2ncccc2[N+](=O)[O-])CC1 (stereo not shown) [7e, N-(2-Nitrophenyl)-2-(4-(3-nitropyridin-2-yl)piperazin-1-yl)propanamide] |  | 2.24 ± 1.63 | more biocompatible; also recorded: good biocompatibility |  |  |
| COc1ccccc1NC(=O)CN1CCN(c2ncccc2[N+](=O)[O-])CC1 [5n, N-(2-Methoxyphenyl)-2-(4-(3-nitropyridin-2-yl)piperazin-1-yl)acetamide] | 120 to 121 | 5.33 ± 0.44 |  |  |  |
| O=C(CN1CCN(c2ncccc2[N+](=O)[O-])CC1)Nc1ccccc1[N+](=O)[O-] [5h, N-(2-Nitrophenyl)-2-(4-(3-nitropyridin-2-yl)piperazin-1-yl)acetamide] | 113 to 115 | 7.12 ± 0.39 |  |  |  |
| COc1ccccc1N1CCN(c2ccc(/C=N/NC(N)=O)cc2)CC1 [Piperazine based semicarbazone] |  |  |  |  | 3950 |
| Cc1ccc(NC(=O)C(C)N2CCN(c3ncccc3[N+](=O)[O-])CC2)cc1 (stereo not shown) [7i, N-(para-Tolyl)-2-(4-(3-nitropyridin-2-yl)piperazin-1-yl)propanamide] | 88 to 89 | 5.65 ± 0.4 |  |  |  |
| CC(C(=O)Nc1cccc([N+](=O)[O-])c1)N1CCN(c2ncccc2[N+](=O)[O-])CC1 (stereo not shown) [7f, N-(3-Nitrophenyl)-2-(4-(3-nitropyridin-2-yl)piperazin-1-yl)propanamide] | 120 to 121 | 7.66 ± 0.37 |  |  |  |
